# Experimental data from US20090111733A1, “PAR-4 RELATED METHODS AND COMPOSITIONS” (President and Fellows of Harvard College, priority 2006, published 2009).
# T1: D2i3 (third intracellular loop of the long isoform of human D2DR) (Homo sapiens, UniProt P14416)
# T1 construct: A long isoform of D2i3 (amino acid 212-373) was amplified from a human D2DR cDNA clone; made in house; host or cells: E. coli BL21
# T1 sequence (P14416 212-241): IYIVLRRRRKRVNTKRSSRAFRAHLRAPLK
# T2: D2i3 (third intracellular loop of the long isoform of human D2DR) (Homo sapiens, UniProt P14416)
# T2 construct: A long isoform of D2i3 (amino acid 212-373) was amplified from a human D2DR cDNA clone; made in house; host or cells: E. coli BL21
# T2 sequence (P14416 212-373): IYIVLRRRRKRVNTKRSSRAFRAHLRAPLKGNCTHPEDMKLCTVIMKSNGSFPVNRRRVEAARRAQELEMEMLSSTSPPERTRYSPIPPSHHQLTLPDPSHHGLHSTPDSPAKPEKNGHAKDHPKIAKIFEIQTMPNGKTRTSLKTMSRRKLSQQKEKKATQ
# B1: Par-4LZ: human Par-4 amino acid residues 245-342 that harbor the leucine zipper domain (protein)
# chain: DRSGFPRYNRDANVSGTLVSSSTLEKKIEDLEKEVVRERQENLRLVRLMQDKEEMIGKLKEEIDLLNRDLDDIEDENEQLKQENKTLLKVVGQLTR
# Columns and labels:
# [1] = tested on: Par-4 nuclear translocation; assay: Par-4 nuclear translocation in cultured striatal neurons; type: cell-based; conditions: activation of glutamate receptors
# [2] = tested on: dopamine-mediated cAMP signaling; assay: cAMP accumulation in cultured primary striatal neurons from wild type and Par-4ΔLZ embryos (cAMP EIA); type: cell-based, mouse; conditions: for upregulation of cAMP signaling comparable to that with dopamine: Par-4ΔLZ striatal neurons
# Procedure: DIV 11-14 neurons cultured in 24 well-plates were replaced with neurobasal media supplemented with 10 mM HEPES (pH7.4) containing drugs indicated for 50 min at room temperature, cells were lysed in 200 μl of 0.1M HCl solution for 15 min with gentle shaking and spun in the microcentrifuge tubes. cAMP concentration of the supernatant was measured using the cAMP-Enzyme Immunoassay Kit (Assay Designs) following manufacture's instructions. Concentrations of cAMP were normalized using protein concentrations measured by Biorad Protein Assay System (Bio-rad).
# Par-4/D2DR association = assay: Co-immunoprecipitation of Par-4 with D2DR-EGFP in the stable D2DR-EGFP cell line; type: cell-based, human
# [3] = molecular target: GST-D2i3 (GST fusion of the third intracellular loop of the long isoform of human D2DR, amino acid residues 212-373) (human); assay: in vitro GST pull-down with purified proteins
# [4] = tested on: CREB S133 phosphorylation
# Procedure: The cells were mechanically dissociated by triturating with a fine polished glass pipette, diluted in Neurobasal media (Invitrogen) supplemented with 10% horse serum and 10 mM HEPES (pH7.2), and plated in a dish coated with poly-D-lysine (Sigma) and laminin (Sigma). Cultured DIV12-13 mouse neurons were lysed for 30 min at 4° C. with gentle shaking in the extraction buffer (50 mM Tris pH8.0, 50 mM NaCl, 1.0% NP-40, 0.5% sodium deoxycholate, 0.1% SDS, 1 mM EDTA, 1 mM EGTA, 1 mM NaF, 20 mM Na4P2O7, 2 mM Na3VO4, 10% glycerol) supplemented with protease inhibitor cocktail (Sigma). Cell lysates were centrifuged for 15 min at 12,000 g at 4° C. and the supernatants were applied to ELISA using the Immunoassay kits for total CREB and […] phospho-CREB (Biosource) following the manufacturer's instruction.
# [5] = molecular target: T1, D2i3 (third intracellular loop of the long isoform of human D2DR); assay: In vitro binding assay with purified GST-D2i3 and Par-4LZ proteins; conditions: in the presence of Ca2+
# Procedure: (§1) pPC97-D2i3 and pPC86-Par-4LZ plasmids were digested with SalI and NotI and cloned into pGEX4T-2 (Amersham-Pharmacia) using the same restriction sites to make GST-D2i3 and GST-Par-4LZ fusion proteins, respectively. GST-fusion proteins were expressed in BL21 bacteria and purified following manufacturer's instruction. For the in vitro binding assay, 500 nmoles of GST-Par-4LZ fusion protein in PBS was digested with 0.2 NIH units of thrombin (Sigma) for 2 hours at room temperature and the reaction was stopped by adding PMSF (10 μM, Sigma) and incubated for an additional 1 hour at 4° C. The GST portion of the digested protein was removed by glutathione sepharose (Amersham-Pharmacia). The supernatant was equilibrated to final 1× binding buffer (200 mM NaCl, 0.2% Triton X-100, 0.2mg/ml BSA and 50 mM Tris, pH 7.5). Binding reaction was initiated by adding 500 nmoles of GST-D2i3 (50 nM of GST-D2i3^221-241 in the competition assay) to Par-4LZ protein in the 1× binding buffer and incubated for 2-3 hours at 4° C. GST-D2i3 was precipitated using 100 μl of 10% glutathione sepharose in 1× binding buffer. The precipitate was washed 3 times with 1× binding buffer and resuspended in 2× SDS sample loading buffer.
# [6] = molecular target: T2, D2i3 (third intracellular loop of the long isoform of human D2DR); assay: as above; conditions: equimolar amount of GST-D2i3 protein
# Procedure: as §1
molecule,measurement,setting,value
N[C@@H](CCC(=O)O)C(=O)O [glutamate],nuclear translocation of Par-4,[1],induce nuclear translocation
NCCc1c[nH]c2ccc(O)cc12 [serotonin],upregulation of cAMP signaling comparable to that with dopamine,[2],not detected
C[C@H](CCC(=O)O)C[C@H](C)C[C@H](C)C(=O)/C=C(\O)[C@H](C)C[C@H](C)C/C=C/[C@@H](C)[C@@H](O)[C@@H](C)[C@@H](O)C[C@@H]1CC[C@@](C)([C@H]2CC[C@@](C)([C@@H](C)O)O2)O1 [ionomycin],co-immunoprecipitation of Par-4 with D2DR-EGFP,Par-4/D2DR association,significantly reduced
"Par-4LZ protein (purified; human Par-4 amino acid residues 245-342, leucine zipper domain)",percent of total protein pulled down,[3],50%
C/C=C(/C)C(=O)O[C@H]1C(C)=C2[C@H]([C@@H]1OC(=O)CCCCCCC)[C@@](C)(OC(C)=O)C[C@H](OC(=O)CCC)[C@@]1(O)[C@H]2OC(=O)[C@@]1(C)O [thapsigargin],co-immunoprecipitation of Par-4 with D2DR-EGFP,Par-4/D2DR association,significantly reduced
NC[C@H](O)c1ccc(O)c(O)c1 [norepinephrine],upregulation of cAMP signaling comparable to that with dopamine,[2],not detected
CCN1CCCC1CNC(=O)c1cc(S(N)(=O)=O)ccc1OC (stereo not shown) [sulpiride],cAMP response to dopamine,"[2]; Par-4ΔLZ neurons, co-treated with dopamine",no such effect
same,cAMP response to dopamine,"[2]; wild type neurons, co-treated with 1-10 μM dopamine",enhanced
NCCc1ccc(O)c(O)c1 [dopamine],cAMP levels,"[2]; Par-4ΔLZ mutant neurons, 1-10 μM of dopamine",markedly elevated
same,dopamine-induced downregulation of CREB S133 phosphorylation,[4]; Par-4ΔLZ neurons,not observed
same,CREB S133 phosphorylation,"[4]; wild type neurons, dose-dependent",significantly decreased
calmodulin,interaction of Par-4LZ with D2i3 in the presence of increasing calmodulin levels,[5],effectively interfered
B1,fraction of total Par-4LZ protein pulled down by GST-D2i3,[6],Approximately 50%
